Measurements published in US20260256769A1, “ARTERIOSCLEROSIS SUPPRESSION THROUGH INHIBITION OF TRANSCRIPTION FACTOR FoxO1” (TEIKYO UNIVERSITY, priority 2022, published 2026).

Columns and labels:
[1] = system: peripheral blood monocytes (CD115 positive cells); experiment: CD11c expression (%) in peripheral blood monocytes (CD115 positive cells) by flow cytometry after intraperitoneal administration; type: in vivo; settings: wild-type mice, 20 mg/kg intraperitoneally for 2 weeks, vs DMSO-treated group
Experimental: (§1) In this Example, the following experiment was carried out. First, the FoxO1 inhibitor AS1842856 (20 mg/kg) was intraperitoneally administered to Syk gene-deficient mice (Syk^del/del) and wild-type mice (Syk^+/+) for 2 weeks. The expression of CD11c in collected bone marrow monocytes was measured by real-time PCR, and the CD11c expression (%) in peripheral blood monocytes (CD115 positive cells) was measured by flow cytometry. CD115 is a monocyte marker.

[2] = system: atherosclerosis lesions in the aortic sinus; experiment: Atherosclerosis lesions in the aortic sinus evaluated using HE staining; type: in vivo; settings: wild-type mice (Syk+/+), 20 mg/kg intraperitoneally for 8 weeks, vs DMSO-treated group
Experimental: Next, after the FoxO1 inhibitor AS1842856 (20 mg/kg) was intraperitoneally administered to wild-type mice (Syk^+/+) for 8 weeks, atherosclerosis lesions in the aortic sinus were evaluated using HE staining.

[3] = system: bone marrow-derived macrophages; experiment: CD11c on the cell surface of bone marrow-derived macrophages by flow cytometry; type: cell-based, mice; settings: vs DMSO-treated control group
Experimental: Next, we assumed that the transcription factor that binds to the nucleotide sequence of the determined region as above was FoxO1, and a FoxO1 inhibitor AS1842856 was administered to the bone marrow-derived macrophages respectively collected from Syk gene-deficient mice (Syk^del/del) and wild-type mice (Syk^+/+), and CD11c on the cell surface was measured by flow cytometry.

bone marrow monocytes = experiment: CD11c expression in bone marrow monocytes by real-time PCR after intraperitoneal administration; type: in vivo; settings: wild-type mice, 20 mg/kg intraperitoneally for 2 weeks, vs DMSO-treated group
Experimental: as §1

CCn1cc(C(=O)O)c(=O)c2c(N)c(F)c(NC3CCCCC3)cc21 [AS1842856, 5-amino-7-(cyclohexylamino)-1-ethyl-6-fluoro-4-oxo-1,4-dihydroquinoline-3-carboxylic acid] was tested, and the “CD11c/CD115 ratio in peripheral blood monocytes” value [1] was “significantly decreased”, the “atherosclerosis lesions in the aortic sinus” value [2] was “Atherosclerosis was suppressed” and the “expression of CD11c on the cell surface” value ([3]; bone marrow-derived macrophages from Syk gene-deficient mice (Syk del/del)) was “no significant difference”. The “expression of CD11c on the cell surface” value ([3]; bone marrow-derived macrophages from wild-type mice (Syk+/+)) was “significantly decreased” and the “CD11c expression in bone marrow monocytes” value (bone marrow monocytes) was “significantly decreased”.
